The values below come from ChEMBL document CHEMBL1141082, “4-Anilino-7,8-dialkoxybenzo[g]quinoline-3-carbonitriles as potent Src kinase inhibitors” (J Med Chem, 2005).

A word on the IC50: it is the concentration that inhibits the measured activity by half.

The target in assay [1] is Receptor tyrosine-protein kinase erbB-2 (Homo sapiens, UniProt P04626). Nature of the assay: nhibitory concentrations against ErbB-2.
In assay [2] the test system is Mus musculus. Nature of the assay: Plasma levels in nude mouse after administration at a single dose of 50 mg/kg ip after 4 hr. It counts as functional. The following applies: route intraperitoneal.
In assay [3] the target is Serine/threonine-protein kinase AKT (Homo sapiens, UniProt P31751+Q9Y243+P31749). Nature of the assay: Inhibitory concentration against AKT. It counts as protein assay.
Assay [4] has as its system Mus musculus. Nature of the assay: Plasma levels in nude mouse after administration at a single dose of 50 mg/kg ip after 0.5 hours. It counts as functional. The following applies: route intraperitoneal.
For assay [5], the species on record is Mus musculus. The note with it: dose 50 mg/kg; route intraperitoneal.
In assay [6] the test system is Mus musculus. Nature of the assay: Plasma levels in nude mouse after administration at a single dose of 50 mg/kg ip after 8 hr. It counts as functional. The following applies: route intraperitoneal.
Assay [7] has as its system Mus musculus. Nature of the assay: Plasma levels in nude mouse after administration at a single dose of 50 mg/kg ip after 24 hours. In kind it is functional. The following applies: route intraperitoneal.
For assay [8], the target named is Proto-oncogene tyrosine-protein kinase Src (Homo sapiens, UniProt P12931). Nature of the assay: Inhibitory concentration against Src kinase.
Chain of Proto-oncogene tyrosine-protein kinase Src (P12931 2-536 limits assumed): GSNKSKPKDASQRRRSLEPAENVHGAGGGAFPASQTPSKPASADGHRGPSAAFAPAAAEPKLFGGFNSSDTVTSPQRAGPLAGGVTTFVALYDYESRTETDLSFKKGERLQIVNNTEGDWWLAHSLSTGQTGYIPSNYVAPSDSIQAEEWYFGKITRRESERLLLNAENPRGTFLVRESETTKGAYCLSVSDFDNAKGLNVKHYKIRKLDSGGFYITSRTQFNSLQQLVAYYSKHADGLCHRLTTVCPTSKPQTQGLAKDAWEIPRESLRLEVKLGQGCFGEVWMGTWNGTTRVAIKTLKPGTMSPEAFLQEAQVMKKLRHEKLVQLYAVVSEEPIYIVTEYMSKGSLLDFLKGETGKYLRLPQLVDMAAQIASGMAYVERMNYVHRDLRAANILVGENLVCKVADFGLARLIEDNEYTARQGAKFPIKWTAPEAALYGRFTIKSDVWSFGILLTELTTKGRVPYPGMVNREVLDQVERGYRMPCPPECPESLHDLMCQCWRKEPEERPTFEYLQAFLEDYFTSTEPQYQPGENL
The target in assay [9] is Cyclin-dependent kinase 4 (Homo sapiens, UniProt P11802). Nature of the assay: Inhibitory concentration against CDK4.
Chain of Cyclin-dependent kinase 4 (P11802 whole entry): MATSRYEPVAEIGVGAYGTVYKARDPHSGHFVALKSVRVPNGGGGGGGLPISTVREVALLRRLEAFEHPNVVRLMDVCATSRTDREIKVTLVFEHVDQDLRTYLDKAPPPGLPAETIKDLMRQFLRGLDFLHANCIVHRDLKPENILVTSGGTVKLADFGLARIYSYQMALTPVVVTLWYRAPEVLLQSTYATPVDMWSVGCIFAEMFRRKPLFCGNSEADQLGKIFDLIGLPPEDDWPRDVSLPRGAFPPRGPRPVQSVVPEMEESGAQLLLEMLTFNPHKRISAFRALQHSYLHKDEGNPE
Assay [10] concerns Mus musculus. Nature of the assay: Plasma levels in nude mouse after administration at a single dose of 50 mg/kg ip after 8 hours. It counts as functional. The note with it: route intraperitoneal.
The subject of assay [11] is Mus musculus. Nature of the assay: Plasma levels in nude mouse after administration at a single dose of 50 mg/kg ip after 4 hours. It counts as functional. The following applies: route intraperitoneal.

Chain of Receptor tyrosine-protein kinase erbB-2 (P04626 whole entry): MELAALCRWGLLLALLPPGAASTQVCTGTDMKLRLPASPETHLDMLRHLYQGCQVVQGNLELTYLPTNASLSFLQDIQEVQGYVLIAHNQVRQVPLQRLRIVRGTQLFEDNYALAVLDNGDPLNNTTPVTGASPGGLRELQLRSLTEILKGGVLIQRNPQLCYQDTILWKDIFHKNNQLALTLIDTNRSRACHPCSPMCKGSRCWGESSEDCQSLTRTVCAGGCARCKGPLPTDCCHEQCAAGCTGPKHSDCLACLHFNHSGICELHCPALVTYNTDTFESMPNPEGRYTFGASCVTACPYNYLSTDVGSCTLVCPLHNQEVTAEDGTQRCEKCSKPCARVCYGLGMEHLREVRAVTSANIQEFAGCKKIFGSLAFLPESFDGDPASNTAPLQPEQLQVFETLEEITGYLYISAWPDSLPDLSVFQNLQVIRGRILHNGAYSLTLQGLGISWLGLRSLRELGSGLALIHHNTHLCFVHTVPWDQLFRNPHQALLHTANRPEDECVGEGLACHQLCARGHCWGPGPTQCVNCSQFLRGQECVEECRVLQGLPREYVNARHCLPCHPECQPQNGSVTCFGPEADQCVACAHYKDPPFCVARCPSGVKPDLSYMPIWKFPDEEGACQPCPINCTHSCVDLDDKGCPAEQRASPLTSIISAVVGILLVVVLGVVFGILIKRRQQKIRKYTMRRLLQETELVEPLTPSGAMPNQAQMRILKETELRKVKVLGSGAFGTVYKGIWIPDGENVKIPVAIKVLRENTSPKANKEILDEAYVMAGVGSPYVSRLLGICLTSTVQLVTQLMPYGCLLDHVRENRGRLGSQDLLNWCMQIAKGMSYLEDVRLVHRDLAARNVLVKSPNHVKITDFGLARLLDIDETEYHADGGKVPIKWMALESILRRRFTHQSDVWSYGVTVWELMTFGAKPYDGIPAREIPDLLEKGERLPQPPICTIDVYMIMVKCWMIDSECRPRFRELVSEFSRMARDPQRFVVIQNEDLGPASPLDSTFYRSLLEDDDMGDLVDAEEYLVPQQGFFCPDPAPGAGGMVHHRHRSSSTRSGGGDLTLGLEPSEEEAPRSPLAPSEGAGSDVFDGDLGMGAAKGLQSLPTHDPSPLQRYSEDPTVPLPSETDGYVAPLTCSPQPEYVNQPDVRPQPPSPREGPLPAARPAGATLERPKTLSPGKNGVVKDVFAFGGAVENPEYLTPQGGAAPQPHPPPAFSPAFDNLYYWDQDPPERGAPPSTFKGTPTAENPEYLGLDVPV

For `COc1cc(Nc2c(C#N)cnc3cc4cc(OCCN5CCOCC5)c(OC)cc4cc23)c(Cl)cc1Cl`, the IC50 is 2500 nM in assay [1], over 10000 nM in [3], 0.46 nM in assay [8] and over 10000 nM in [9]. The Activity in the assay on Mus musculus [2] is 1.9 µg/mL; with Mus musculus [4], 2.1 µg/mL; with Mus musculus [6] it was 0.3 µg/mL; in the assay with Mus musculus [7], 0.02 µg/mL. For the same compound, the Growth inhibiton in the assay filed under Mus musculus [5] turned out to be 25%.
As for `COc1cc(Nc2c(C#N)cnc3cc4cc(OCCN5CCN(C)CC5)c(OC)cc4cc23)c(Cl)cc1Cl`, the Activity in the assay with Mus musculus [4] stood at 1.3 µg/mL; in the assay on Mus musculus [10], 0.7 µg/mL; in the assay on Mus musculus [7] it was 0.24 µg/mL; with Mus musculus [11] it was 0.63 µg/mL. In the assay listed under Mus musculus [5], the Growth inhibiton turned out to be 20%.
